Measured values published in the NIST ThermoML archive (doi:10.1021/je800110r).

Details: 333.15 K, Liquid, Vibrating tube method

CCCCCCCCCC [decane]
Details | mass density [kg/m3]
10425 kPa | 708.9
10455 kPa | 709
10482 kPa | 709
10506 kPa | 709.1
10526 kPa | 709
10553 kPa | 709.1
10580 kPa | 709
10603 kPa | 709.1
10630 kPa | 709.2
10657 kPa | 709
10677 kPa | 709.3
10704 kPa | 709.2
10743 kPa | 709.3
10772 kPa | 709.2
10799 kPa | 709.4
10828 kPa | 709.3
10856 kPa | 709.3
10884 kPa | 709.3
10917 kPa | 709.4
10950 kPa | 709.4
10976 kPa | 709.4
11009 kPa | 709.5
11035 kPa | 709.6
11073 kPa | 709.6
11102 kPa | 709.7
11132 kPa | 709.6
11162 kPa | 709.7
11188 kPa | 709.5
11219 kPa | 709.7
11250 kPa | 709.7
11277 kPa | 709.8
11304 kPa | 709.8
11330 kPa | 709.7
11357 kPa | 709.7
11398 kPa | 709.8
11428 kPa | 709.8
11460 kPa | 709.8
11492 kPa | 709.9
11533 kPa | 709.9
11566 kPa | 710
11596 kPa | 710
11635 kPa | 710
11662 kPa | 710
11697 kPa | 710.1
11733 kPa | 710.1
11760 kPa | 710.1
11796 kPa | 710.2
11827 kPa | 710.2
11859 kPa | 710.2
11895 kPa | 710.2
11932 kPa | 710.4
11974 kPa | 710.4
11998 kPa | 710.3
12044 kPa | 710.4
12087 kPa | 710.5
12115 kPa | 710.6
12144 kPa | 710.4
12187 kPa | 710.4
12857 kPa | 711
12881 kPa | 711.2
12919 kPa | 711.2
12952 kPa | 711.1
12983 kPa | 711.3
13020 kPa | 711.3
13053 kPa | 711.2
13085 kPa | 711.3
13153 kPa | 711.4
13172 kPa | 711.5
13195 kPa | 711.4
13213 kPa | 711.4
13239 kPa | 711.4
13261 kPa | 711.4
13279 kPa | 711.4
13300 kPa | 711.5
13315 kPa | 711.4
13337 kPa | 711.4
13353 kPa | 711.6
13598 kPa | 711.7
13618 kPa | 711.8
13633 kPa | 711.7
13652 kPa | 711.8
13667 kPa | 711.7
13682 kPa | 711.8
13695 kPa | 711.7
13715 kPa | 711.7
13728 kPa | 711.9
13740 kPa | 711.9
13756 kPa | 711.8
13775 kPa | 711.9
13790 kPa | 711.9
13804 kPa | 712
13817 kPa | 711.9
13834 kPa | 712
13854 kPa | 712
13867 kPa | 711.9
13887 kPa | 712
13913 kPa | 712.1
13929 kPa | 712.1
13951 kPa | 712
13965 kPa | 712.1
13981 kPa | 712.1
13994 kPa | 712
14010 kPa | 712.1
14027 kPa | 712.1
14048 kPa | 712.3
14066 kPa | 712.2
14089 kPa | 712.2
14106 kPa | 712.1
14128 kPa | 712.2
14140 kPa | 712.1
14154 kPa | 712.2
14172 kPa | 712.3
14186 kPa | 712.3
14205 kPa | 712.3
14217 kPa | 712.3
14240 kPa | 712.4
14902 kPa | 712.8
14923 kPa | 712.9
14943 kPa | 713
14961 kPa | 713.1
15005 kPa | 712.9
15028 kPa | 713
15046 kPa | 712.9
15070 kPa | 713
15086 kPa | 713
15104 kPa | 712.9
15126 kPa | 713
15147 kPa | 713
15166 kPa | 713
15205 kPa | 713.2
15267 kPa | 713.2
15394 kPa | 713.3
15411 kPa | 713.3
15435 kPa | 713.4
15452 kPa | 713.4
15479 kPa | 713.3
15499 kPa | 713.4
15536 kPa | 713.4
15558 kPa | 713.4
15603 kPa | 713.4
15623 kPa | 713.5
15641 kPa | 713.5
15666 kPa | 713.6
15680 kPa | 713.5
15703 kPa | 713.5
15721 kPa | 713.6
15741 kPa | 713.6
15761 kPa | 713.5
15784 kPa | 713.6
15804 kPa | 713.6
15827 kPa | 713.6
15859 kPa | 713.6
15877 kPa | 713.7
15898 kPa | 713.6
15919 kPa | 713.8
15945 kPa | 713.8
15972 kPa | 713.7
15992 kPa | 713.8
16013 kPa | 713.7
16043 kPa | 713.8
16061 kPa | 713.9
16084 kPa | 713.9
16108 kPa | 713.9
16129 kPa | 713.9
16147 kPa | 713.9
16163 kPa | 714.1
16188 kPa | 714
16212 kPa | 713.9
16236 kPa | 714
16258 kPa | 714.1
16288 kPa | 714.1
16313 kPa | 714
16336 kPa | 714
16354 kPa | 714
16383 kPa | 714.1
16417 kPa | 714
16436 kPa | 714.1
16455 kPa | 714.1
16484 kPa | 714.1
16506 kPa | 714.2
16535 kPa | 714.2
16557 kPa | 714.2
16580 kPa | 714.2
16599 kPa | 714.4
16628 kPa | 714.2
16648 kPa | 714.2
16681 kPa | 714.3
16700 kPa | 714.4
16719 kPa | 714.3
16749 kPa | 714.4
16769 kPa | 714.4
16806 kPa | 714.4
16832 kPa | 714.3
16858 kPa | 714.5
16882 kPa | 714.4
16913 kPa | 714.4
16933 kPa | 714.6
16963 kPa | 714.6
16983 kPa | 714.5
17007 kPa | 714.6
17030 kPa | 714.6
17054 kPa | 714.6
17071 kPa | 714.7
17105 kPa | 714.6
17136 kPa | 714.7
17168 kPa | 714.7
17193 kPa | 714.8
17217 kPa | 714.8
17252 kPa | 714.9
17276 kPa | 714.8
17301 kPa | 714.8
17329 kPa | 714.9
17357 kPa | 714.8
17382 kPa | 714.9
17407 kPa | 715
17429 kPa | 714.9
17458 kPa | 715
17484 kPa | 715
17509 kPa | 714.9
17542 kPa | 715.1
17564 kPa | 715
17593 kPa | 715.1
17626 kPa | 715.1
17656 kPa | 715.1
17689 kPa | 715.2
17708 kPa | 715.2
17727 kPa | 715.2
17754 kPa | 715.3
17777 kPa | 715.2
17799 kPa | 715.3
17827 kPa | 715.3
17857 kPa | 715.2
17891 kPa | 715.4
17925 kPa | 715.4
17948 kPa | 715.3
17975 kPa | 715.4
18002 kPa | 715.5
18025 kPa | 715.4
18053 kPa | 715.5
18089 kPa | 715.5
18117 kPa | 715.5
18145 kPa | 715.5
18164 kPa | 715.6
18188 kPa | 715.6
18223 kPa | 715.6
18263 kPa | 715.6
18286 kPa | 715.6
18322 kPa | 715.8
18354 kPa | 715.7
18382 kPa | 715.7
18419 kPa | 715.7
18443 kPa | 715.8
18476 kPa | 715.8
18500 kPa | 715.7
18540 kPa | 715.9
18566 kPa | 716
18594 kPa | 716
18623 kPa | 716
18664 kPa | 716
18744 kPa | 716
18765 kPa | 716
18791 kPa | 716.1
18859 kPa | 716.1
18889 kPa | 716.1
18927 kPa | 716.2
18953 kPa | 716.2
18982 kPa | 716.3
19017 kPa | 716.2
19048 kPa | 716.3
19083 kPa | 716.3
19113 kPa | 716.3
19140 kPa | 716.3
19180 kPa | 716.3
19216 kPa | 716.4
